Laboratory results as given in PubChem BioAssay AID2060895 (Molecular Pharmacology Branch, DTP, NCI, 2025).
Where “and” joins values, the source holds several entries; their conditions need not be identical. Identical values can stand only once.

Test system: PDC 899932-113-R3-J6 complex spheroid viability
Assay: Anticancer human tumor 899932-113-R3-J6-PDC patient-derived melanoma cell line growth inhibition [RAS]
Conditions: for viability, T/C: stronger effect = lower value; active = viability on the fitted dose curve at most 10% of control; inactive = the rest
Summary of the method: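 Agents were tested in combination matrices in half-log decrements from a top concentration at or near clinical Cmax (10 microM if undetermined). Targets were multi-cell spheroids of tumour lines plus HUVEC and MSC stromal cells.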

[1] = curve of first compound, second compound 0.0316 µM
[2] = curve of first compound, second compound 0.1 µM
[3] = curve of first compound, second compound 0.316 µM
[4] = curve of first compound, second compound 1 µM
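Throughout, for viability, T/C: spheroids exposed to agents for seven days before readout; 100% = DMSO vehicle control wells.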

Nc1ccn(C2OC(CO)C(O)C2(F)F)c(=O)n1 (stereo unspecified)
17 nM and 10.3 nM and 16.8 nM: IC50 (curve of compound)
inactive: viability, T/C (compound 0.00316 µM) 103% (2×) and 77.4% and 105% | viability, T/C (compound 0.01 µM) 65.5% [middle of 4 runs] | viability, T/C (compound 0.0316 µM) 32.3% [middle of 4 runs] | viability, T/C (compound 0.1 µM) 19.3% [middle of 4 runs] | viability, T/C (compound 0.316 µM) 21% [middle of 4 runs] | viability, T/C (compound 1 µM) 22.2% [middle of 4 runs]

CC1(C)CCC(Nc2ncc(C(F)(F)F)c(-c3c[nH]c4c(P(C)(C)=O)c(C#N)ccc34)n2)CN1 (stereo unspecified) + C#Cc1c(F)ccc2cc(O)cc(-c3ncc4c(N5CC6CCC(C5)N6)nc(OCC56CCCN5CC(F)C6)nc4c3F)c12
inactive: viability, T/C (second compound 0.0316 µM, first compound 0.000949 µM) 100% | viability, T/C (second compound 0.0316 µM, first compound 0.003 µM) 82.4% | viability, T/C (second compound 0.0316 µM, first compound 0.00949 µM) 57.3% | viability, T/C (second compound 0.0316 µM, first compound 0.03 µM) 45.7% | viability, T/C (second compound 0.0316 µM, first compound 0.0949 µM) 13.2% | viability, T/C (second compound 0.1 µM, first compound 0.000949 µM) 97.2% | viability, T/C (second compound 0.1 µM, first compound 0.003 µM) 79.1% | viability, T/C (second compound 0.1 µM, first compound 0.00949 µM) 56.9% | viability, T/C (second compound 0.1 µM, first compound 0.03 µM) 42.8% | viability, T/C (second compound 0.1 µM, first compound 0.0949 µM) 14.3% | viability, T/C (second compound 0.316 µM, first compound 0.000949 µM) 102% | viability, T/C (second compound 0.316 µM, first compound 0.003 µM) 84.9% | viability, T/C (second compound 0.316 µM, first compound 0.00949 µM) 53.5% | viability, T/C (second compound 0.316 µM, first compound 0.03 µM) 47.5% | viability, T/C (second compound 0.316 µM, first compound 0.0949 µM) 15.9% | viability, T/C (second compound 1 µM, first compound 0.000949 µM) 104% | viability, T/C (second compound 1 µM, first compound 0.003 µM) 79.4% | viability, T/C (second compound 1 µM, first compound 0.00949 µM) 58% | viability, T/C (second compound 1 µM, first compound 0.03 µM) 45.5% | viability, T/C (second compound 1 µM, first compound 0.0949 µM) 13.5% | viability, T/C (second compound 3.16 µM, first compound 0.000949 µM) 112% | viability, T/C (second compound 3.16 µM, first compound 0.003 µM) 84.9% | viability, T/C (second compound 3.16 µM, first compound 0.00949 µM) 64.6% | viability, T/C (second compound 3.16 µM, first compound 0.03 µM) 47.1% | viability, T/C (second compound 3.16 µM, first compound 0.0949 µM) 13.6% | viability, T/C (second compound 10 µM, first compound 0.000949 µM) 108% | viability, T/C (second compound 10 µM, first compound 0.003 µM) 87.6% | viability, T/C (second compound 10 µM, first compound 0.00949 µM) 55.1% | viability, T/C (second compound 10 µM, first compound 0.03 µM) 58.9% | viability, T/C (second compound 10 µM, first compound 0.0949 µM) 11.1%
16.5 nM: IC50 [3]
15.3 nM: IC50 [2]
active: viability, T/C (second compound 0.0316 µM, first compound 0.3 µM) 9.56% | viability, T/C (second compound 0.1 µM, first compound 0.3 µM) 7.89% | viability, T/C (second compound 0.316 µM, first compound 0.3 µM) 11.3% | viability, T/C (second compound 1 µM, first compound 0.3 µM) 9.51% | viability, T/C (second compound 3.16 µM, first compound 0.3 µM) 8.79% | viability, T/C (second compound 10 µM, first compound 0.3 µM) 6.89%
15.8 nM: IC50 [4]
16.4 nM: IC50 [1]
19.2 nM: IC50 (curve of first compound, second compound 3.16 µM)
20.7 nM: IC50 (curve of first compound, second compound 10 µM)

CCN1CCN(Cc2ccc(Nc3ncc(F)c(-c4cc(F)c5nc(C)n(C(C)C)c5c4)n3)nc2)CC1 + C=CC(=O)N1CCN(c2nc(OCC3CCCN3C)nc3c(F)c(-c4nc(N)cc(C)c4C(F)(F)F)c(Cl)cc23)C(C)C1
393 nM: IC50 [4]
457 nM: IC50 (curve of first compound, second compound 0.01 µM)
414 nM: IC50 (curve of first compound, second compound 0.00316 µM)
447 nM: IC50 [1]
inactive: viability, T/C (second compound 0.00316 µM, first compound 0.00316 µM) 102% | viability, T/C (second compound 0.00316 µM, first compound 0.01 µM) 92.3% | viability, T/C (second compound 0.00316 µM, first compound 0.0316 µM) 88.7% | viability, T/C (second compound 0.00316 µM, first compound 0.1 µM) 78% | viability, T/C (second compound 0.00316 µM, first compound 0.316 µM) 62.2% | viability, T/C (second compound 0.00316 µM, first compound 1 µM) 18.8% | viability, T/C (second compound 0.01 µM, first compound 0.00316 µM) 99.9% | viability, T/C (second compound 0.01 µM, first compound 0.01 µM) 98.5% | viability, T/C (second compound 0.01 µM, first compound 0.0316 µM) 95.6% | viability, T/C (second compound 0.01 µM, first compound 0.1 µM) 85.5% | viability, T/C (second compound 0.01 µM, first compound 0.316 µM) 63% | viability, T/C (second compound 0.01 µM, first compound 1 µM) 22.6% | viability, T/C (second compound 0.0316 µM, first compound 0.00316 µM) 98.4% | viability, T/C (second compound 0.0316 µM, first compound 0.01 µM) 101% | viability, T/C (second compound 0.0316 µM, first compound 0.0316 µM) 103% | viability, T/C (second compound 0.0316 µM, first compound 0.1 µM) 89.5% | viability, T/C (second compound 0.0316 µM, first compound 0.316 µM) 63% | viability, T/C (second compound 0.0316 µM, first compound 1 µM) 20.6% | viability, T/C (second compound 0.1 µM, first compound 0.00316 µM) 109% | viability, T/C (second compound 0.1 µM, first compound 0.01 µM) 94% | viability, T/C (second compound 0.1 µM, first compound 0.0316 µM) 85.7% | viability, T/C (second compound 0.1 µM, first compound 0.1 µM) 83% | viability, T/C (second compound 0.1 µM, first compound 0.316 µM) 61.2% | viability, T/C (second compound 0.1 µM, first compound 1 µM) 24% | viability, T/C (second compound 0.316 µM, first compound 0.00316 µM) 101% | viability, T/C (second compound 0.316 µM, first compound 0.01 µM) 106% | viability, T/C (second compound 0.316 µM, first compound 0.0316 µM) 90.5% | viability, T/C (second compound 0.316 µM, first compound 0.1 µM) 81% | viability, T/C (second compound 0.316 µM, first compound 0.316 µM) 65.9% | viability, T/C (second compound 0.316 µM, first compound 1 µM) 23.9% | viability, T/C (second compound 1 µM, first compound 0.00316 µM) 107% | viability, T/C (second compound 1 µM, first compound 0.01 µM) 104% | viability, T/C (second compound 1 µM, first compound 0.0316 µM) 93% | viability, T/C (second compound 1 µM, first compound 0.1 µM) 72.8% | viability, T/C (second compound 1 µM, first compound 0.316 µM) 64.3% | viability, T/C (second compound 1 µM, first compound 1 µM) 18%
429 nM: IC50 [2]
467 nM: IC50 [3]
